In PubChem BioAssay AID2060895 (Molecular Pharmacology Branch, DTP, NCI, 2025):

System: PDC 899932-113-R3-J6 complex spheroid viability
Assay: Anticancer human tumor 899932-113-R3-J6-PDC patient-derived melanoma cell line growth inhibition [RAS]
Conditions: for IC50: curve of first compound; for viability, T/C: stronger effect = lower value
Outline: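 Multi-cell-type spheroids: tumor cells plus HUVEC endothelial cells and mesenchymal stem cells. RAS-pathway inhibitors were combined with targeted agents, each dosed in half-log steps down from clinical Cmax, or from 10 microM when Cmax was unknown.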

[1] = second compound 0.000949 µM, first compound 0.0316 µM
[2] = second compound 0.000949 µM, first compound 0.1 µM
[3] = second compound 0.000949 µM, first compound 0.316 µM
[4] = second compound 0.000949 µM, first compound 1 µM
[5] = second compound 0.000949 µM, first compound 3.16 µM
[6] = second compound 0.000949 µM, first compound 10 µM
[7] = second compound 0.003 µM, first compound 0.0316 µM
[8] = second compound 0.003 µM, first compound 0.1 µM
[9] = second compound 0.003 µM, first compound 0.316 µM
[10] = second compound 0.003 µM, first compound 1 µM
[11] = second compound 0.003 µM, first compound 3.16 µM
[12] = second compound 0.003 µM, first compound 10 µM
[13] = second compound 0.00949 µM, first compound 0.0316 µM
[14] = second compound 0.00949 µM, first compound 0.1 µM
[15] = second compound 0.00949 µM, first compound 0.316 µM
[16] = second compound 0.00949 µM, first compound 1 µM
[17] = second compound 0.00949 µM, first compound 3.16 µM
[18] = second compound 0.00949 µM, first compound 10 µM
[19] = second compound 0.03 µM, first compound 0.0316 µM
[20] = second compound 0.03 µM, first compound 0.1 µM
[21] = second compound 0.03 µM, first compound 0.316 µM
[22] = second compound 0.03 µM, first compound 1 µM
[23] = second compound 0.03 µM, first compound 3.16 µM
[24] = second compound 0.03 µM, first compound 10 µM
[25] = second compound 0.0949 µM, first compound 0.0316 µM
[26] = second compound 0.0949 µM, first compound 0.1 µM
[27] = second compound 0.0949 µM, first compound 0.316 µM
[28] = second compound 0.0949 µM, first compound 1 µM
[29] = second compound 0.0949 µM, first compound 3.16 µM
[30] = second compound 0.0949 µM, first compound 10 µM
[31] = second compound 0.3 µM, first compound 0.0316 µM
[32] = second compound 0.3 µM, first compound 0.1 µM
[33] = second compound 0.3 µM, first compound 0.316 µM
[34] = second compound 0.3 µM, first compound 1 µM
[35] = second compound 0.3 µM, first compound 3.16 µM
[36] = second compound 0.3 µM, first compound 10 µM
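For viability, T/C in this document: spheroids exposed to agents for seven days before readout; 100% = DMSO vehicle control wells.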

## CC1(O)CCCC1n1c(=O)c(C(F)F)cc2cnc(NC3CCN(S(C)(=O)=O)CC3)nc21 (stereo not drawn) + CCn1c(-c2cccnc2C(C)OC)c2c3cc(ccc31)N1CCOC(CC(NC(=O)C(C(C)C)N(C)C(=O)C3(F)CCN(C(=O)C#CC(C)(C)N(C)C)CC3)C(=O)N3CCCC(N3)C(=O)OCC(C)(C)C2)C1
Second compound 0.000949 µM
  IC50: 3.73 µM
Second compound 0.003 µM
  IC50: 3.71 µM
Second compound 0.00949 µM
  IC50: 2.84 µM
Second compound 0.03 µM
  IC50: 3.47 µM
Second compound 0.0949 µM
  IC50: 2.71 µM
Second compound 0.3 µM
  IC50: 3.41 µM
[1]
  viability, T/C: 98.1%
[2]
  viability, T/C: 86.7%
[3]
  viability, T/C: 72.3%
[4]
  viability, T/C: 68.8%
[5]
  viability, T/C: 56.8%
[6]
  viability, T/C: 33.6%
[7]
  viability, T/C: 99.8%
[8]
  viability, T/C: 83%
[9]
  viability, T/C: 71.6%
[10]
  viability, T/C: 69.7%
[11]
  viability, T/C: 59%
[12]
  viability, T/C: 32.3%
[13]
  viability, T/C: 107%
[14]
  viability, T/C: 84.5%
[15]
  viability, T/C: 69.7%
[16]
  viability, T/C: 63.4%
[17]
  viability, T/C: 55.9%
[18]
  viability, T/C: 32.9%
[19]
  viability, T/C: 110%
[20]
  viability, T/C: 79.9%
[21]
  viability, T/C: 69.6%
[22]
  viability, T/C: 70.1%
[23]
  viability, T/C: 59.7%
[24]
  viability, T/C: 32.3%
[25]
  viability, T/C: 94%
[26]
  viability, T/C: 80.2%
[27]
  viability, T/C: 66.3%
[28]
  viability, T/C: 64.8%
[29]
  viability, T/C: 55.6%
[30]
  viability, T/C: 27%
[31]
  viability, T/C: 88.5%
[32]
  viability, T/C: 77.8%
[33]
  viability, T/C: 69.3%
[34]
  viability, T/C: 63.7%
[35]
  viability, T/C: 59.6%
[36]
  viability, T/C: 23.1%

## CCC(CC)c1cc(NC2CCC(N)C2)n2nccc2n1 (stereo not drawn) + CCn1c(-c2cccnc2C(C)OC)c2c3cc(ccc31)N1CCOC(CC(NC(=O)C(C(C)C)N(C)C(=O)C3(F)CCN(C(=O)C#CC(C)(C)N(C)C)CC3)C(=O)N3CCCC(N3)C(=O)OCC(C)(C)C2)C1
Second compound 0.000949 µM
  IC50: 1.46 µM
Second compound 0.003 µM
  IC50: 1.58 µM
Second compound 0.00949 µM
  IC50: 1.5 µM
Second compound 0.03 µM
  IC50: 1.49 µM
Second compound 0.0949 µM
  IC50: 1.31 µM
Second compound 0.3 µM
  IC50: 1.22 µM
[1]
  viability, T/C: 104%
[2]
  viability, T/C: 86.7%
[3]
  viability, T/C: 94.8%
[4]
  viability, T/C: 73.8%
[5]
  viability, T/C: 1.84%
[6]
  viability, T/C: 0.94%
[7]
  viability, T/C: 95.8%
[8]
  viability, T/C: 85.5%
[9]
  viability, T/C: 90.9%
[10]
  viability, T/C: 81.7%
[11]
  viability, T/C: 1.51%
[12]
  viability, T/C: 1.01%
[13]
  viability, T/C: 94.7%
[14]
  viability, T/C: 82.3%
[15]
  viability, T/C: 87.1%
[16]
  viability, T/C: 76.7%
[17]
  viability, T/C: 1.18%
[18]
  viability, T/C: 0.88%
[19]
  viability, T/C: 86.7%
[20]
  viability, T/C: 77.1%
[21]
  viability, T/C: 85.3%
[22]
  viability, T/C: 75.9%
[23]
  viability, T/C: 1.56%
[24]
  viability, T/C: 0.52%
[25]
  viability, T/C: 80.2%
[26]
  viability, T/C: 83.4%
[27]
  viability, T/C: 87.5%
[28]
  viability, T/C: 64.8%
[29]
  viability, T/C: 1.71%
[30]
  viability, T/C: 0.88%
[31]
  viability, T/C: 79.8%
[32]
  viability, T/C: 73.5%
[33]
  viability, T/C: 77.9%
[34]
  viability, T/C: 60%
[35]
  viability, T/C: 1.44%
[36]
  viability, T/C: 0.36%

## Cc1nc(N2CCC3(CC2)COC(C)C3N)c(CO)nc1Sc1ccnc(N)c1Cl (stereo not drawn) + CCn1c(-c2cccnc2C(C)OC)c2c3cc(ccc31)N1CCOC(CC(NC(=O)C(C(C)C)N(C)C(=O)C3(F)CCN(C(=O)C#CC(C)(C)N(C)C)CC3)C(=O)N3CCCC(N3)C(=O)OCC(C)(C)C2)C1
Second compound 0.000949 µM
  IC50: > 10 µM
Second compound 0.003 µM
  IC50: > 10 µM
Second compound 0.00949 µM
  IC50: > 10 µM
Second compound 0.03 µM
  IC50: > 10 µM
Second compound 0.0949 µM
  IC50: > 10 µM
Second compound 0.3 µM
  IC50: > 10 µM
[1]
  viability, T/C: 109%
[2]
  viability, T/C: 102%
[3]
  viability, T/C: 108%
[4]
  viability, T/C: 113%
[5]
  viability, T/C: 112%
[6]
  viability, T/C: 118%
[7]
  viability, T/C: 102%
[8]
  viability, T/C: 96.8%
[9]
  viability, T/C: 107%
[10]
  viability, T/C: 116%
[11]
  viability, T/C: 109%
[12]
  viability, T/C: 110%
[13]
  viability, T/C: 93.2%
[14]
  viability, T/C: 95.5%
[15]
  viability, T/C: 112%
[16]
  viability, T/C: 121%
[17]
  viability, T/C: 114%
[18]
  viability, T/C: 110%
[19]
  viability, T/C: 91.7%
[20]
  viability, T/C: 89.3%
[21]
  viability, T/C: 108%
[22]
  viability, T/C: 110%
[23]
  viability, T/C: 108%
[24]
  viability, T/C: 106%
[25]
  viability, T/C: 91.2%
[26]
  viability, T/C: 85.8%
[27]
  viability, T/C: 103%
[28]
  viability, T/C: 94.2%
[29]
  viability, T/C: 105%
[30]
  viability, T/C: 107%
[31]
  viability, T/C: 82.5%
[32]
  viability, T/C: 80.9%
[33]
  viability, T/C: 95.6%
[34]
  viability, T/C: 81.6%
[35]
  viability, T/C: 94.3%
[36]
  viability, T/C: 90.7%

## NC1c2ccccc2OC12CCN(c1cnc3c(N4CCCc5ncccc54)n[nH]c3n1)CC2 (stereo not drawn) + CCn1c(-c2cccnc2C(C)OC)c2c3cc(ccc31)N1CCOC(CC(NC(=O)C(C(C)C)N(C)C(=O)C3(F)CCN(C(=O)C#CC(C)(C)N(C)C)CC3)C(=O)N3CCCC(N3)C(=O)OCC(C)(C)C2)C1
Second compound 0.000949 µM
  IC50: > 10 µM
Second compound 0.003 µM
  IC50: > 10 µM
Second compound 0.00949 µM
  IC50: > 10 µM
Second compound 0.03 µM
  IC50: > 10 µM
Second compound 0.0949 µM
  IC50: > 10 µM
Second compound 0.3 µM
  IC50: > 10 µM
[1]
  viability, T/C: 113%
[2]
  viability, T/C: 102%
[3]
  viability, T/C: 112%
[4]
  viability, T/C: 120%
[5]
  viability, T/C: 114%
[6]
  viability, T/C: 101%
[7]
  viability, T/C: 113%
[8]
  viability, T/C: 112%
[9]
  viability, T/C: 111%
[10]
  viability, T/C: 120%
[11]
  viability, T/C: 111%
[12]
  viability, T/C: 110%
[13]
  viability, T/C: 112%
[14]
  viability, T/C: 112%
[15]
  viability, T/C: 110%
[16]
  viability, T/C: 129%
[17]
  viability, T/C: 120%
[18]
  viability, T/C: 109%
[19]
  viability, T/C: 112%
[20]
  viability, T/C: 116%
[21]
  viability, T/C: 105%
[22]
  viability, T/C: 117%
[23]
  viability, T/C: 112%
[24]
  viability, T/C: 106%
[25]
  viability, T/C: 100%
[26]
  viability, T/C: 102%
[27]
  viability, T/C: 94.4%
[28]
  viability, T/C: 113%
[29]
  viability, T/C: 108%
[30]
  viability, T/C: 98.5%
[31]
  viability, T/C: 97.7%
[32]
  viability, T/C: 85.1%
[33]
  viability, T/C: 95.7%
[34]
  viability, T/C: 96.8%
[35]
  viability, T/C: 92.6%
[36]
  viability, T/C: 85.7%
